# Reference: patent US8852928B2, “LexA-based chemical-inducible gene expression system for use in transgenic animals” (Temasek Life Sciences Laboratory Limited, priority 2007, dated 2014)
# Entries after “also recorded” stand apart in the source; their conditions may differ.
# Tests used:
# [1] = target: T1, LexPR transactivator (Homo sapiens, UniProt P06401); assay: Trans-activation of mCherry effector in effector and double transgenic fish; format: in vivo, zebrafish; details: 1 μM
# T1 construct: expressed in transfected cells; host or cells: germline-transgenic zebrafish (Danio rerio) carrying the Ds transposon driver cassette pDs(krt8:LPR-LOP:G4) or derivatives
# T1 sequence (P06401 640-914): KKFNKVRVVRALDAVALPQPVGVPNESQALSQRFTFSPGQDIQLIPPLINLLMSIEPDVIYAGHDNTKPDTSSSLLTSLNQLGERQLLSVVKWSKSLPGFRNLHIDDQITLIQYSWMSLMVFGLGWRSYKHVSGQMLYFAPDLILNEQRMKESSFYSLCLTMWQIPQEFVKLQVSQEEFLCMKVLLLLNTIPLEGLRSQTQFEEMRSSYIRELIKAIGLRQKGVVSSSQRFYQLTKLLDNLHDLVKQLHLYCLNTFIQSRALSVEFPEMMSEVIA
# Method: Two independent driver lines with different LexPR transactivator expression patterns (shown on FIGS. 4A, 4D) were crossed with two independent transgenic effector lines, which carried mCherry gene under control of the LexOP. […] Images were captured at 96 hours post fertilization.
# This effector cassette harbors a gene for red fluorescent protein “mCherry” under the control of the LexOP sequence (Example 3).
# [2] = target: T1, LexPR transactivator; assay: Mifepristone-induced EGFP reporter fluorescence in LexPR driver-reporter transgenic fish; format: in vivo, zebrafish
# Excerpt: Generating transgenic fish using Ac/Ds transposon system: Transgenic fish carrying insertions of the driver and effector constructs containing Ds cis-required sequences (as described herein) were generated as previously described (Emelyanov et al., 2006). 5-10 pg of plasmid DNA was co-injected into zebrafish embryos (yolk center) with 25-50 pg of in vitro synthesized transposase mRNA at the 1-2-cell stage. […] Only the lines that segregated as a single locus (produced 1:1 ratio when outcrossed to nontransgenic fish) were selected.
# [3] = target: T1, LexPR transactivator; assay: Rate of transcription induction, whole mount in situ hybridization for EGFP transcript; format: in vivo, zebrafish; details: 1 μM
# Method: RNA in situ hybridization: Whole mount in situ hybridization using antisense RNA probes for full length LexPR transactivator and EGFP labeled with digoxigenin (Roche, USA) was carried out as previously described (Oxtoby and Jowett, 1993). After in situ hybridization stained embryos were mounted in PBS-glycerol and viewed using Nikon SMZ1600 stereomicroscope. Images were taken with Nikon DXM1200F digital camera with the Nikon ACT-1 software and processed using Adobe Photoshop 7.0.1 software.
# To accurately estimate the rate of induction, it is more appropriate to measure the transcript rather than the protein product, especially if the gene of interest contains sequences for RNAi, microRNA or other non-coding RNAs.
# [4] = tested on: zebrafish development; assay: Side effects on development of LexPR transgenic fish upon induction; format: in vivo
# Excerpt: FIG. 13b: Control wild type fish. FIG. 13c: Transgenic F2 embryos harboring the LexPR driver-reporter cassette described in this manuscript.
# [5] = target: T1, LexPR transactivator; assay: Control of maternal EGFP expression by treating transgenic females; format: in vivo, zebrafish; details: 1 μM for 12 hours before crossing
# [6] = target: T1, LexPR transactivator; assay: Inducible expression of EGFP-KrasV12 in transgenic zebrafish; format: in vivo; details: 10 μM at 10 hpf onwards
# Excerpt: Transgenic zebrafish line harboring insertion of the binary driver construct Ds(krt8:LPR-LOP:EGFP-Kras^V12) containing EGFP-Kras^V12 under control of the LexOP, F2 (FIG. 12a-12e, FIG. 12g). FIG. 12a: 24 hpf, no induction. […] FIG. 12f: Transgenic fish harboring the unmodified driver-reporter construct pDs(krt8:LPR-LOP:G4) containing EGFP gene under control of the LexOP.
# [7] = target: T1, LexPR transactivator; assay: Time required to switch off EGFP reporter expression after mifepristone withdrawal; format: in vivo, zebrafish; design: key to Reporter expression, RU486 incubation / Reporter expression after RU486 withdrawal / Reporter expression, continuous induction (time of RU486 incubation): +: Fluorescence signal is similar to the control.; ±: Fluorescence signal is obviously weaker that in control.; −: No EGFP fluorescence (except autofluorescence)observed using the fluorescent stereomicroscope
# Excerpt: To avoid confusion, the corresponding developmental times are indicated. A Nikon SMZ1600 fluorescent stereomicroscope was used for rough estimation of the EGFP fluorescence.
compound,measurement,setting,value
CC#C[C@]1(O)CC[C@H]2[C@@H]3CCC4=CC(=O)CCC4=C3[C@@H](c3ccc(N(C)C)cc3)C[C@@]21C [mifepristone],Background mCherry fluorescence in effector lines (effector cassette only),[1],No background mCherry fluorescence was detected; also recorded: not detected
same,Reporter expression in double transgenic embryos (driver and effector),[1],both reporters (EGFP/driver and mCherry/effector) were co-expressed in the same cells
same,Reporter expression at lowest inducible concentration,[2]; 1 nM,significantly weaker reporter expression
same,EGFP expression induced,"[2]; 10 nM, after 24 hours of incubation",Strong EGFP expression
same,Time until EGFP fluorescence was observed after adding mifepristone,[2]; 1 μM and 100 nM final concentration in growth water,6 to 9 h
same,Lowest inducible concentration,"[2]; EGFP reporter, growth water",1 nM
same,Concentration required for effective transcription induction,[2]; in the growth water,0.01 to 1 µM
same,Time of induction to maximum transcript level,[3],approximately nine
same,"Effect on embryo development and cell morphology, LexPR driver-reporter F2 embryos",[4]; 1 μM in the growth water 10 hpf onwards,does not affect embryo development and morphology of the EGFP-positive cells
same,Side effects on zebrafish development,"[4]; 10 μM at 1-cell stage, LexPR system",did not observe obvious side effects
same,Maternal EGFP expression in offspring of treated transgenic F2 females,[5],produced GFP-positive eggs; also recorded: All the F3 embryos showed maternal EGFP expression
same,Effect of induced EGFP-KrasV12 expression on F2 embryos,[6],embryo development was severely affected
same,"Reporter expression, RU486 incubation","[7]; 1 nM, 1 hour RU486 incubation - withdrawal, at 1 h incubation, 37hpf",−
same,Reporter expression after RU486 withdrawal,"[7]; 1 nM, 1 hour RU486 incubation, 12 h after withdrawal, 49hpf",−
same,Reporter expression after RU486 withdrawal,"[7]; 1 nM, 1 hour RU486 incubation, 24 h after withdrawal, 61hpf",−
same,Reporter expression after RU486 withdrawal,"[7]; 1 nM, 1 hour RU486 incubation, 48 h after withdrawal, 85hpf",−
same,Reporter expression after RU486 withdrawal,"[7]; 1 nM, 1 hour RU486 incubation, 72 h after withdrawal, 109hpf",−
same,Reporter expression after RU486 withdrawal,"[7]; 1 nM, 1 hour RU486 incubation, 96 h after withdrawal, 133hpf",−
same,Reporter expression after RU486 withdrawal,"[7]; 1 nM, 1 hour RU486 incubation, 120 h after withdrawal, 157hpf",−
same,Reporter expression after RU486 withdrawal,"[7]; 1 nM, 1 hour RU486 incubation, 144 h after withdrawal, 181hpf",−
same,"Reporter expression, RU486 incubation","[7]; 1 nM, 12 hours RU486 incubation - withdrawal, at 12 h incubation, 48hpf",−
same,Reporter expression after RU486 withdrawal,"[7]; 1 nM, 12 hours RU486 incubation, 12 h after withdrawal, 60hpf",±
same,Reporter expression after RU486 withdrawal,"[7]; 1 nM, 12 hours RU486 incubation, 24 h after withdrawal, 72hpf",−
same,Reporter expression after RU486 withdrawal,"[7]; 1 nM, 12 hours RU486 incubation, 48 h after withdrawal, 96hpf",−
same,Reporter expression after RU486 withdrawal,"[7]; 1 nM, 12 hours RU486 incubation, 72 h after withdrawal, 120hpf",−
same,Reporter expression after RU486 withdrawal,"[7]; 1 nM, 12 hours RU486 incubation, 96 h after withdrawal, 144hpf",−
same,Reporter expression after RU486 withdrawal,"[7]; 1 nM, 12 hours RU486 incubation, 120 h after withdrawal, 168hpf",−
same,Reporter expression after RU486 withdrawal,"[7]; 1 nM, 12 hours RU486 incubation, 144 h after withdrawal, 192hpf",−
same,Minimal time after RU486 withdrawal to turn off the reporter expression,"[7]; 1 nM, 12 hours induction",1 days
same,"Reporter expression, continuous induction (time of RU486 incubation)","[7]; 1 nM, 24-156 h incubation, 60-192 hpf",±
same,"Reporter expression, continuous induction (time of RU486 incubation)","[7]; 1 nM, 1 h incubation",−
same,"Reporter expression, continuous induction (time of RU486 incubation)","[7]; 1 nM, 12 h incubation",−
same,"Reporter expression, continuous induction (time of RU486 incubation)","[7]; 1 nM, 13 h incubation, 49hpf",−
same,"Reporter expression, continuous induction (time of RU486 incubation)","[7]; 1 nM, 24 h incubation, 60hpf",±
same,"Reporter expression, RU486 incubation","[7]; 10 nM, 1 hour RU486 incubation - withdrawal, at 1 h incubation, 37hpf",−
same,Reporter expression after RU486 withdrawal,"[7]; 10 nM, 1 hour RU486 incubation, 12 h after withdrawal, 49hpf",±
same,Reporter expression after RU486 withdrawal,"[7]; 10 nM, 1 hour RU486 incubation, 24 h after withdrawal, 61hpf",−
same,Reporter expression after RU486 withdrawal,"[7]; 10 nM, 1 hour RU486 incubation, 48 h after withdrawal, 85hpf",−
same,Reporter expression after RU486 withdrawal,"[7]; 10 nM, 1 hour RU486 incubation, 72 h after withdrawal, 109hpf",−
same,Reporter expression after RU486 withdrawal,"[7]; 10 nM, 1 hour RU486 incubation, 96 h after withdrawal, 133hpf",−
same,Reporter expression after RU486 withdrawal,"[7]; 10 nM, 1 hour RU486 incubation, 120 h after withdrawal, 157hpf",−
same,Reporter expression after RU486 withdrawal,"[7]; 10 nM, 1 hour RU486 incubation, 144 h after withdrawal, 181hpf",−
same,Minimal time after RU486 withdrawal to turn off the reporter expression,"[7]; 10 nM, 1 hour induction",1 days
same,"Reporter expression, RU486 incubation","[7]; 10 nM, 12 hours RU486 incubation - withdrawal, at 12 h incubation, 48hpf",±
same,Reporter expression after RU486 withdrawal,"[7]; 10 nM, 12 hours RU486 incubation, 12 h after withdrawal, 60hpf",+
same,Reporter expression after RU486 withdrawal,"[7]; 10 nM, 12 hours RU486 incubation, 24 h after withdrawal, 72hpf",±
same,Reporter expression after RU486 withdrawal,"[7]; 10 nM, 12 hours RU486 incubation, 48 h after withdrawal, 96hpf",−
same,Reporter expression after RU486 withdrawal,"[7]; 10 nM, 12 hours RU486 incubation, 72 h after withdrawal, 120hpf",−
same,Reporter expression after RU486 withdrawal,"[7]; 10 nM, 12 hours RU486 incubation, 96 h after withdrawal, 144hpf",−
same,Reporter expression after RU486 withdrawal,"[7]; 10 nM, 12 hours RU486 incubation, 120 h after withdrawal, 168hpf",−
same,Reporter expression after RU486 withdrawal,"[7]; 10 nM, 12 hours RU486 incubation, 144 h after withdrawal, 192hpf",−
same,Minimal time after RU486 withdrawal to turn off the reporter expression,"[7]; 10 nM, 12 hours induction",2 days
